Laboratory results reported in patent US4698327A, “Novel glycopeptide derivatives” (priority 1986, dated 1987).
Values after ≈ are worked out from the molar mass of the structure shown.

Assays:
[1] = system: Haemophilus influenzae 76; experiment: MIC, standard agar-dilution assay; assay type: cell-based
[2] = system: Streptococcus pyogenes C203; experiment: MIC, standard agar-dilution assay; assay type: cell-based
[3] = system: Streptococcus pyogenes; details: Streptococcus pyogenes infection in mice; two doses, administered subcutaneously
[4] = system: Staphylococcus aureus; details: Staphylococcus aureus infection in mice; two doses, administered subcutaneously
[5] = system: Staphylococcus epidermidis EPI1; assay type: cell-based; details: agar dilution
[6] = system: Staphylococcus aureus S13E; assay type: cell-based; details: agar dilution
[7] = system: Klebsiella pneumoniae X26; experiment: MIC, standard agar-dilution assay; assay type: cell-based
[8] = system: Staphylococcus aureus NRRL B313; details: agar dilution
[9] = system: Escherichia coli TEM; experiment: MIC, standard agar-dilution assay; assay type: cell-based
[10] = system: Streptococcus pneumoniae Park 1; assay type: cell-based; details: agar dilution
[11] = system: Escherichia coli N10; experiment: MIC, standard agar-dilution assay; assay type: cell-based
[12] = system: Escherichia coli EC14; experiment: MIC, standard agar-dilution assay; assay type: cell-based
[13] = system: Staphylococcus epidermidis 222; experiment: MIC, standard agar-dilution assay; assay type: cell-based
[14] = system: Streptococcus pneumoniae; details: Streptococcus pneumoniae infection in mice; two doses, administered subcutaneously
[15] = system: Streptococcus faecium ATCC 9790; experiment: MIC, standard agar-dilution assay; assay type: cell-based
[16] = system: Staphylococcus aureus X400; experiment: MIC, standard agar-dilution assay; assay type: cell-based
[17] = system: Haemophilus influenzae C.L.; experiment: MIC, standard agar-dilution assay; assay type: cell-based
[18] = system: Klebsiella pneumoniae KAE; experiment: MIC, standard agar-dilution assay; assay type: cell-based
[19] = system: Klebsiella pneumoniae X68; experiment: MIC, standard agar-dilution assay; assay type: cell-based
[20] = system: Staphylococcus aureus V41; experiment: MIC, standard agar-dilution assay; assay type: cell-based
[21] = system: Streptococcus sp. group D 2041; experiment: MIC, standard agar-dilution assay; assay type: cell-based

Row | Structure (SMILES) | MIC [1] [µg/mL] | MIC [2] [µg/mL] | ED50 [3] [mg/kg/2] | ED50 [4] [mg/kg/2] | MIC [5] [µg/mL] | MIC [6] [µg/mL] | MIC [7] [µg/mL] | MIC [8] [µg/mL] | MIC [9] [µg/mL] | MIC [10] [µg/mL] | MIC [11] [µg/mL] | MIC [12] [µg/mL] | MIC [13] [µg/mL] | ED50 [14] [mg/kg/2] | MIC [15] [µg/mL] | MIC [16] [µg/mL] | MIC [17] [µg/mL] | MIC [18] [µg/mL] | MIC [19] [µg/mL] | MIC [20] [µg/mL] | further results
1 | CCCCCCCCCNC1(C)CC(OC2C(Oc3c4cc5cc3Oc3ccc(cc3Cl)C(O)C3NC(=O)C(NC(=O)C5NC(=O)C(CC(N)=O)NC(=O)C(NC(=O)C(CC(C)C)NC)C(O)c5ccc(c(Cl)c5)O4)c4ccc(O)c(c4)-c4c(O)cc(O)cc4C(C(=O)O)NC3=O)OC(CO)C(O)C2O)OC(C)C1O (stereo not drawn) [Compound 5, N^van --(n-nonyl)vancomycin] | 64 (≈ 40.6 µM) | 0.125 (≈ 0.0793 µM) | 0.56 | 2.9 | 0.5 (≈ 0.317 µM) | 0.25 (≈ 0.159 µM) | > 128 | 0.25 (≈ 0.159 µM) | > 128 | 0.25 (≈ 0.159 µM) | > 128 | > 128 | 0.25 (≈ 0.159 µM) | 0.81 | 0.25 (≈ 0.159 µM) | 0.25 (≈ 0.159 µM) | 64 (≈ 40.6 µM) | > 128 | > 128 | 0.25 (≈ 0.159 µM) | MIC [21]: 0.5 µg/mL (≈ 0.317 µM)
2 | CCCCCCCCN(C)C(CC(C)C)C(=O)NC1C(=O)NC(CC(N)=O)C(=O)NC2C(=O)NC3C(=O)NC(C(=O)NC(C(=O)O)c4cc(O)cc(O)c4-c4cc3ccc4O)C(O)c3ccc(c(Cl)c3)Oc3cc2cc(c3OC2OC(CO)C(O)C(O)C2OC2CC(C)(N)C(O)C(C)O2)Oc2ccc(cc2Cl)C1O (stereo not drawn) [Compound 8, N^leu --(n-octyl)vancomycin] | 128 (≈ 82 µM) | 0.5 (≈ 0.32 µM) | 3.7 | > 5 | 2 (≈ 1.28 µM) | 1 (≈ 0.64 µM) | > 128 | 0.5 (≈ 0.32 µM) | > 128 | 1 (≈ 0.64 µM) | > 128 | > 128 | 1 (≈ 0.64 µM) | 3.1 | 1 (≈ 0.64 µM) | 1 (≈ 0.64 µM) | 128 (≈ 82 µM) | > 128 | > 128 | 0.5 (≈ 0.32 µM) | MIC [21]: 2 µg/mL (≈ 1.28 µM)
3 | CCN(CC)c1ccc(CNC2(C)CC(OC3C(Oc4c5cc6cc4Oc4ccc(cc4Cl)C(O)C4NC(=O)C(NC(=O)C6NC(=O)C(CC(N)=O)NC(=O)C(NC(=O)C(CC(C)C)NC)C(O)c6ccc(c(Cl)c6)O5)c5ccc(O)c(c5)-c5c(O)cc(O)cc5C(C(=O)O)NC4=O)OC(CO)C(O)C3O)OC(C)C2O)cc1 (stereo not drawn) [Example 77, N^van ( -p-diethylaminobenzyl)vancomycin] | 128 (≈ 79.5 µM) | 0.25 (≈ 0.155 µM) | 0.8 | 1.1 | 1 (≈ 0.621 µM) | 0.5 (≈ 0.31 µM) | > 128 | 0.25 (≈ 0.155 µM) | > 128 | 0.125 (≈ 0.0776 µM) | > 128 | > 128 | 0.5 (≈ 0.31 µM) | 1.2 | 0.5 (≈ 0.31 µM) | 0.5 (≈ 0.31 µM) | 128 (≈ 79.5 µM) | > 128 | > 128 | 0.5 (≈ 0.31 µM) | MIC [21]: 1 µg/mL (≈ 0.621 µM)
4 | CNC(CC(C)C)C(=O)NC1C(=O)NC(CC(N)=O)C(=O)NC2C(=O)NC3C(=O)NC(C(=O)NC(C(=O)O)c4cc(O)cc(O)c4-c4cc3ccc4O)C(O)c3ccc(c(Cl)c3)Oc3cc2cc(c3OC2OC(CO)C(O)C(O)C2OC2CC(C)(NCc3ccc(Br)cc3)C(O)C(C)O2)Oc2ccc(cc2Cl)C1O (stereo not drawn) [Example 80, N^van --( -p-bromobenzyl)vancomycin] | 64 (≈ 39.5 µM) | 0.25 (≈ 0.154 µM) | 0.78 | 1.34 | 1 (≈ 0.618 µM) | 0.25 (≈ 0.154 µM) | > 128 | 0.25 (≈ 0.154 µM) | > 128 | 0.03 (≈ 0.0185 µM) | > 128 | > 128 | 0.5 (≈ 0.309 µM) | 0.41 | 0.25 (≈ 0.154 µM) | 0.25 (≈ 0.154 µM) | 64 (≈ 39.5 µM) | > 128 | > 128 | 0.5 (≈ 0.309 µM) | MIC [21]: 1 µg/mL (≈ 0.618 µM)
